Read-outs that look alike come from different tables or passages of the source.
Experiments:
GTN-induced migraine = conditions: cited from earlier work
[1] = intranasal, formulations containing cyclodextrins, rabbits; cited from earlier work
allergic rhinitis = conditions: intranasal, humans; cited from earlier work
[2] = human, in vivo, inhaled or intranasal
Experimental: In this study, the fraction absorbed nasally was calculated by preventing absorption via the GI tract through the use of charcoal.

[3] = nasal spray, cited from earlier work
[4] = in vivo; cited from earlier work
[5] = cited from earlier work
[6] = rat, in vivo; cited from earlier work

Compound: O=[N+]([O-])OCC(CO[N+](=O)[O-])O[N+](=O)[O-] [GTN, glyceryltrinitrate]
- subjects with a history of migraine in whom migraine is expected to be induced (GTN-induced migraine; GTN challenge): 75%

Compound: CN1C[C@H](C(=O)N[C@]2(C)O[C@@]3(O)[C@@H]4CCCN4C(=O)[C@H](Cc4ccccc4)N3C2=O)C[C@@H]2c3cccc4[nH]cc(c34)C[C@H]21 [dihydroergotamine]
- Tmax, powder versus liquid formulations [1]: broadly comparable

Compound: O=C(O)c1cc(=O)c2c(OCC(O)COc3cccc4oc(C(=O)O)cc(=O)c34)cccc2o1 [sodium cromoglycate]
- effectiveness, powder versus solution formulation (allergic rhinitis): somewhat more effective

Compound: CNS(=O)(=O)Cc1ccc2[nH]cc(CCN(C)C)c2c1 [sumatriptan]
- time to reversal of GTN-induced excess of theta (more than 15%) after treatment (GTN-induced migraine; studies by others): ≤ 30 min

Compound: CN(C)CCc1c[nH]c2ccc(C[C@H]3COC(=O)N3)cc12 [zolmitriptan]
- ratio of nasal absorption fraction to total bioavailability (BA) [2]: about 0.75
- fraction of nasal absorption ([3]; GI absorption prevented with charcoal): about 30%
- total BA [3]: about 40%

Compound: calcitonin
- absorption, liquid versus powder formulations [4]: comparable

Compound: elcatonin
- bio-availability in vivo, powder formulation versus liquid [5]: greater bio-availability

Compound: salmon calcitonin
- Tmax, powder versus liquid formulations [6]: no apparent difference
